In US8426414B2, “Modulators of G protein-coupled receptor 88” (Bristol-Myers Squibb Company, priority 2009, dated 2013) one finds EC50 and melting point data, which are given here for 20 compounds.

Counter-ions that a name gives are not always drawn.

A word on the EC50: it is the concentration giving half of the maximal effect. What is called melting point is the temperature, or range, at which the solid turns liquid.

Sequence of G protein-coupled receptor 88 (Q9GZN0 whole entry, species assumed): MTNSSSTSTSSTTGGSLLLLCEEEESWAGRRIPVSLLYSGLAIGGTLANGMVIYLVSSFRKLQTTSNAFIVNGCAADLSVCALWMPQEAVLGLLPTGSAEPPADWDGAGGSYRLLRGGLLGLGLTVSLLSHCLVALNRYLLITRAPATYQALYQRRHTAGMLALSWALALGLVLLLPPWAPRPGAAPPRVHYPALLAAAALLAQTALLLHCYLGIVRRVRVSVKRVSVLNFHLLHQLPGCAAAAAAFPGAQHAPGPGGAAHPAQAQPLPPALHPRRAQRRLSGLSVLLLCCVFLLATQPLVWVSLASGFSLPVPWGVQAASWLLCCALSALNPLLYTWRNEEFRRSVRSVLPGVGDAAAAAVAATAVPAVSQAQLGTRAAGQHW

The target in one series is G protein-coupled receptor 88 (Homo sapiens, UniProt Q9GZN0). Nature of the series: GPR88 functional assay for the Table 2 EC50 values (GTPγS assay and cAMP HTRF assay described; table does not say which). The format is cell-based. To be noted: class symbol X; read-out: Range (EC50). Here is the method:
96 well GTPγS assay plates were purchased from Perkin Elmer. Wheat Germ Agglutinin PVT SPA beads and […] were purchased from Amersham GDP, GTPγS and all buffer reagents were from Sigma. 384 well white NBS plates were purchased from corning. Pertussis toxin was purchased from Calbiochem. All cell culture reagents were purchased from Invitrogen. Forskolin was purchased from Sigma. The cAMP HTRF kit was purchased from Cisbio International.
The GTPγS assay buffer consisted of 10 mM MgCl2, 180 mM NaCl, 200 uM GDP, 0.167 mg/ml DTT, 1 mM EGTA and 20 mM HEPES pH7.4. This buffer was used for dilution of membranes, beads, and ^35S GTPγS components. To each well of the 96 well assay plate 48 ul assay buffer, 2 ul of 100× compound, 50 ul membrane solution (0.2 ug/ul), 50 ul ^35S GTPγS solution (0.8 nM) and 50 ul of SPA beads (10 mg/ml). Non-specific binding was determined by the addition of cold GTPγS to control wells. The plates were sealed with clear sealing tape and incubated at room temperature for 1 hour. GTPγS activity was detected using a Wallac Micro-Beta Trilux liquid scintillation counter. Non-specific binding was determined using 10 uM cold GTPγS.
The cAMP HTRF assay is modified from the Cisbio International kit procedure 62AM4PEJ. Assay plates were prepared by stamping 0.1 ul of 100× compound stock solutions diluted in DMSO or DMSO alone into 384 well NBS plates. The cAMP HTRF assay was performed using cells in suspension. The cAMP HTRF assay buffer consisted of Hank's Balanced Salt Solution (HBSS), 2 mM CaCl2, 5 mM MgCl2, 20 mM HEPES and 1 mM 3-isobutyl-1-methylxanthine (IBMX) (added fresh at the time of assay). For pertussis toxin treatment pertussis toxin (100 ng/ml) was added to culture medium for 16 hours prior to assay. Confluent cells were disrupted with cell dissociation buffer count cells then centrifuged at 1000×g for 5 minutes. The cell pellet was resuspended in assay buffer alone for basal cAMP measurements or with 0.75 uM forskolin (added immediately prior to addition to wells) for addition to all other wells. Using a Multidrop 384 (Lab systems) 10 ul of cell suspension was added to each well containing compound or DMSO. The plates were incubated at room temperature for 30 minutes covered. During this time the cAMP standard curve was prepared as per manufacturer's instruction. At the end of the incubation 10 ul of anti-cAMP cryptate and 10 ul cAMP-XL, diluted in manufacturer's lysis buffer, were added to each well. The plated were incubated at room temperature for 60 minutes covered then read on an Envision plate reader (Perkin Elmer) and the 665 nm/620 nm fluorescence ratio determined Fluorescence ratio values were converted to molar cAMP concentrations from the standard curve using the GraphPad Prism program.
`CCCC#Cc1ccc(N(C[C@@H](N)[C@@H](C)CC)C(=O)C2CC2c2cccc(F)n2)cc1` (stereo in doubt) [Example 19, (1S,2S)-2-(6-Fluoro-pyridin-2-yl)-cyclopropanecarboxylic acid ((2S,3S)-2-amino-3-methyl-pentyl)-(4-pent-1-ynyl-phenyl)-amide 2TFA]: the EC50 lay within 0.003 to 0.02 µM. Turning to `CC[C@H](C)[C@H](N)CN(C(=O)[C@@H]1C[C@H]1c1ccccn1)c1ccc(OCC2CCC2)cc1` [Example 13, (1R,2R)-2-Pyridin-2-yl-cyclopropanecarboxylic acid ((2S,3S)-2-amino-3-methyl-pentyl)-(4-cyclobutylmethoxy-phenyl)-amide], the EC50 lay within 0.003 to 0.02 µM. On to `CC[C@H](C)[C@H](N)CN(C(=O)[C@@H]1C[C@H]1c1cccc(F)n1)c1ccc(-c2ccc(COC)cc2)cc1` [Example 16, Trans-2-(6-fluoro-pyridin-2-yl)-cyclopropanecarboxylic acid ((2S,3S)-2-amino-3-methyl-pentyl)-(4′-methoxymethyl-biphenyl-4-yl)-amide], for which the EC50 was 0.003 to 0.02 µM. For `CC#Cc1ccc(-c2ccc(N(C[C@@H](N)[C@@H](C)CC)C(=O)[C@@H]3C[C@H]3c3ccccn3)cc2)cc1` [Example 5, (1R,2R)-2-pyridin-2-yl-cyclopropanecarboxylic acid ((2S,3S)-2-amino-3-methyl-pentyl)-(4′-prop-1-ynyl-biphenyl-4-yl)-amide], the EC50 fell in the range of 0.003 to 0.02 µM. For `CC[C@H](C)[C@H](N)CN(C(=O)[C@@H]1C[C@H]1c1ccc(F)cn1)c1ccc(OCC2CCC2)cc1` [Example 17, (1R,2R)-2-(5-Fluoro-pyridin-2-yl)-cyclopropanecarboxylic acid ((2S,3S)-2-amino-3-methyl-pentyl)-(4-cyclobutylmethoxy-phenyl)-amide], the EC50 lay in the range of 0.003 to 0.02 µM.

As for `CCCc1ccc(-c2ccc(N(C[C@@H](N)[C@@H](C)CC)C(=O)[C@H]3C[C@@H]3c3ncccc3F)cc2)cc1` [Example 10], the EC50 lay within 0.003 to 0.02 µM. Turning to `CCCc1ccc(-c2ccc(N(C[C@@H](N)[C@@H](C)OC)C(=O)[C@@H]3C[C@H]3c3cnccn3)cc2)cc1` [Example 18, Trans-2-pyrazin-2-yl-cyclopropanecarboxylic acid ((2R,3R)-2-amino-3-methoxy-butyl)-(4′-propyl-biphenyl-4-yl)-amide], the EC50 lay in the range of 0.003 to 0.02 µM. With `COCc1ccc(-c2ccc(N(CC3(N)CCCC3)C(=O)[C@@H]3C[C@H]3c3cccc(F)n3)cc2)cc1` (relative stereo) [Example 8, Trans-2-(6-fluoro-pyridin-2-yl)-cyclopropanecarboxylic acid (1-amino-cyclopentylmethyl)-(4′-methoxymethyl-biphenyl-4-yl)-amide], the EC50 fell in the range of 0.003 to 0.02 µM. Still for that read-out and setting: for `CC[C@H](C)[C@H](N)CN(C(=O)[C@@H]1C[C@H]1c1ccccn1)c1ccc(-c2ccc(COC)cc2)cc1` [Example 1, (1R,2R)-2-Pyridin-2-yl-cyclopropanecarboxylic acid ((2S,3S)-2-amino-3-methyl-pentyl)-(4′-methoxymethyl-biphenyl-4-yl)-amide] the value was 0.003 to 0.02 µM; for `CC[C@H](C)[C@H](N)CN(C(=O)[C@@H]1C[C@H]1c1ccccn1)c1ccc(-c2ccc(OC(C)C)cc2)cc1` [Example 2, (1R,2R)-2-Pyridin-2-yl-cyclopropanecarboxylic acid ((2S,3S)-2-amino-3-methyl-pentyl)-(4′-isopropoxy-biphenyl-4-yl)-amide], 0.003 to 0.02 µM. Same read-out and setting: for `CC[C@H](C)[C@H](N)CN(C(=O)[C@@H]1C[C@H]1c1ccc(F)cn1)c1ccc2cc(C3CC3)ccc2c1` [Example 20] the value was 0.003 to 0.02 µM. On the same count and under the same terms, for `CCCc1ccc(-c2ccc(N(C[C@@H](N)[C@@H](C)CC)C(=O)C3CC3c3cnccn3)cc2)cc1` (stereo partly drawn) [Example 11, (Trans)-2-pyrazin-2-yl-cyclopropanecarboxylic acid ((2S,3S)-2-amino-3-methyl-pentyl)-(4′-propyl-biphenyl-4-yl)-amide] the value was 0.003 to 0.02 µM; for `CCCc1ccc(-c2ccc(N(CC3(N)CCCC3)C(=O)[C@@H]3C[C@H]3c3cccc(F)n3)cc2)cc1` (relative stereo) [Example 6, Trans-2-(6-fluoro-pyridin-2-yl)-cyclopropanecarboxylic acid (1-amino-cyclopentylmethyl)-(4′-propyl-biphenyl-4-yl)-amide], 0.003 to 0.02 µM; for `CCCc1ccc(-c2ccc(N(C[C@@H](N)[C@@H](C)CC)C(=O)[C@@H]3C[C@H]3c3cccc(F)n3)cc2)cc1` [Example 14, Trans-2-(6-fluoro-pyridin-2-yl)-cyclopropanecarboxylic acid ((2S,3S)-2-amino-3-methyl-pentyl)-(4′-propyl-biphenyl-4-yl)-amide], 0.003 to 0.02 µM. Consider `CC[C@H](C)[C@H](N)CN(C(=O)[C@H]1C[C@@H]1c1ccc(F)cn1)c1ccc(-c2ccc(COC)cc2)cc1` (stereo in doubt) [Example 4, (Trans)-2-(5-fluoro-pyridin-2-yl)-cyclopropanecarboxylic acid ((2S,3S)-2-amino-3-methyl-pentyl)-(4′-methoxymethyl-biphenyl-4-yl)-amide], for which the EC50 lay in the range of 0.003 to 0.02 µM.

`CC(C)Oc1ccc(-c2ccc(N(CC3(N)CCCC3)C(=O)[C@@H]3C[C@H]3c3cccc(F)n3)cc2)cc1` (relative stereo) [Example 7, Trans-2-(6-fluoro-pyridin-2-yl)-cyclopropanecarboxylic acid (1-amino-cyclopentylmethyl)-(4′-isopropoxy-biphenyl-4-yl)-amide]: the EC50 was in the range of 0.003 to 0.02 µM. Same read-out and setting: for `CCCc1ccc(-c2ccc(N(CC3(N)CCOCC3)C(=O)[C@@H]3C[C@H]3c3ccccn3)cc2)cc1` (relative stereo) [Example 9, Trans-2-Pyridin-2-yl-cyclopropanecarboxylic acid (4-amino-tetrahydro-pyran-4-ylmethyl)-(4′-propyl-biphenyl-4-yl)-amide] the value was 0.003 to 0.02 µM.

The same series, now with this note: value given as number; read-out: Range (EC50).
As for `CC[C@H](C)[C@H](N)CN(C(=O)[C@@H]1C[C@H]1c1ccc(F)cn1)c1ccc(OCC2CCC2)cc1` [Example 12, 2-(5-Fluoro-pyridin-2-yl)-cyclopropanecarboxylic acid ((2S,3S)-2-amino-3-methyl-pentyl)-(4-cyclobutylmethoxy-phenyl)-amide], the EC50 turned out to be 0.02 µM. On to `CC[C@H](C)[C@H](N)CN(C(=O)[C@@H]1C[C@H]1c1cccc(F)n1)c1ccc(-c2ccc(OC(C)C)cc2)cc1` [Example 15, Trans-2-(6-fluoro-pyridin-2-yl)-cyclopropanecarboxylic acid ((2S,3S)-2-amino-3-methyl-pentyl)-(4′-isopropoxy-biphenyl-4-yl)-amide], for which the EC50 is 0.008 µM.

Test system in a further series: not given
Experiment: not given
Details: not given
The compound `CCCc1ccc(-c2ccc(N(CC3(N)CCOCC3)C(=O)[C@@H]3C[C@H]3c3ccccn3)cc2)cc1` (relative stereo) (as salt: hydrochloride) [Example 9, Trans-2-Pyridin-2-yl-cyclopropanecarboxylic acid (4-amino-tetrahydro-pyran-4-ylmethyl)-(4′-propyl-biphenyl-4-yl)-amide] showed a melting point of 180 to 183 °C.
